Assay results as given in PubChem BioAssay (NCI).
Values joined by “and” are separate entries in the source; they are usually repeats but may differ in a detail not shown here. Identical values can stand only once.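 Values below derive from 48-hour exposures of cells grown in 96-well plates, with endpoints linearly interpolated between the two concentrations bracketing the appropriate inhibition level. Abbreviation: GI50, concentration required for 50% inhibition of growth. Definition used: TGI = concentration required for complete inhibition of growth.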

Assays:
Experiment in all cases: inhibition of tumour cell growth, NCI panel, 48 h
A498 renal = tested on: A498 renal
BT-549 breast = tested on: BT-549 breast
HL-60(TB) leukemia = tested on: HL-60(TB) leukemia
KM12 colon = tested on: KM12 colon
MCF7 breast = tested on: MCF7 breast
MDA-MB-231 breast = tested on: MDA-MB-231 breast
NCI-H522 lung = tested on: NCI-H522 lung
RXF 393 renal = tested on: RXF 393 renal
SW-620 colon = tested on: SW-620 colon
U251 CNS = tested on: U251 CNS

SMILES	GI50 (A498 renal)	TGI (A498 renal)	GI50 (BT-549 breast)	TGI (BT-549 breast) [µM]	GI50 (HL-60(TB) leukemia)	TGI (HL-60(TB) leukemia) [µM]	GI50 (KM12 colon)	TGI (KM12 colon) [µM]	GI50 (MCF7 breast)	TGI (MCF7 breast) [µM]	GI50 (MDA-MB-231 breast)	TGI (MDA-MB-231 breast) [µM]	GI50 (NCI-H522 lung)	TGI (NCI-H522 lung) [µM]	GI50 (RXF 393 renal) [µM]	TGI (RXF 393 renal) [µM]	GI50 (SW-620 colon)	TGI (SW-620 colon) [µM]	GI50 (U251 CNS)	TGI (U251 CNS) [µM]
COC(=O)[C@]12CC[C@@H](C)[C@H](C)[C@@H]1C1=CC[C@@H]3[C@@]4(C)C(C=O)=C[C@@](C)(COC(=O)c5ccco5)C4=CC[C@@]3(C)[C@]1(C)CC2	2.81 µM	16.9 µM	4.93 µM	32.4	2.85 µM	5.72	3.27 µM	19.9	2.77 µM	10.3	2.73 µM	9.47	3.31 µM	10.9	1.7	3.77	3.1 µM	11.2	2.06 µM	10.8
O=C(Cc1ccc(-c2ccc(OCCN3CCOCC3)cc2)cn1)NCc1ccccc1	0.0247 µM and 0.0277 µM	0.331 µM and 0.0822 µM	0.159 µM and 0.0767 µM	–	0.0294 µM and 0.0309 µM	–	0.032 µM and 0.0387 µM	> 7.88	< 0.0164 µM and 0.0356 µM	> 100	0.0577 µM and 0.0833 µM	> 100	0.0223 µM and 0.0242 µM	0.0831	0.0108	0.0497	0.0376 µM and 0.0388 µM	> 100	0.0417 µM and 0.0377 µM	> 100
Cc1cc(O)cc(-c2nn(C)cc2-c2cc(N3CCOCC3)nc(-c3cccnc3)n2)c1	1.06 µM	3.24 µM	3.17 µM	20.8	2.81 µM	20.2	3.23 µM	20.7	1.13 µM	18.1	5.82 µM	38	2.79 µM	18.1	1.7	6.51	8.14 µM	48.1	4.19 µM	18.9
COc1ccc(-c2cncn2-c2ccc(-c3nc4cc(OC)c(OC)c(OC)c4s3)cc2)cc1N	4.83 µM	> 100 µM	6.21 µM	> 100	2.2 µM	9.55	3.8 µM	> 100	4.07 µM	> 100	> 100 µM	> 100	3.37 µM	17.5	5.98	> 100	6.21 µM	> 100	6 µM	> 100
COC(=O)C[C@@H]1CC=CC(=O)/C1=C(O)/C=C/c1ccccc1	1.87 µM	3.82 µM	1.48 µM	2.86	1.24 µM	4.31	0.233 µM	0.705	0.374 µM	3.04	1.46 µM	4.22	0.32 µM	0.959	0.295	0.888	0.338 µM	1.33	0.354 µM	1.28
N#Cc1cc2c(=S)[nH]c(=S)[nH]c2nc1SCc1ccccc1	39.9 µM	> 100 µM	47.2 µM	> 100	30.4 µM	77.4	29.2 µM	> 100	50.6 µM	> 100	21.7 µM	87.4	> 100 µM	> 100	31.8	> 100	48.9 µM	> 100	29.5 µM	> 100
NC(=O)/C=C/c1c[nH]c2nccnc12	–	12.5 µM	–	8.09	–	> 38.7	–	> 46.3	–	> 100	–	31.6	–	45.9	–	4.17	–	10.5	–	> 100
COc1cc(-c2cn(-c3ccc(F)cc3)c(=O)[nH]2)cc(OC)c1OC	> 100 µM	> 100 µM	> 100 µM	> 100	> 100 µM	> 100	> 100 µM	> 100	> 100 µM	> 100	> 100 µM	> 100	> 100 µM	> 100	> 100	> 100	> 100 µM	> 100	> 100 µM	> 100
COc1ccc(C#CC2=C(Br)C(=O)OC2)cc1	0.873 µM	12 µM	8.32 µM	18.3	5.32 µM	> 50	3.05 µM	11	2.47 µM	> 50	9.48 µM	27.6	25.8 µM	> 50	7.06	17.4	1.23 µM	4.54	1.75 µM	6.48
CN1CCN(c2ccc(NC(=O)c3cncnc3Nc3ccc4c(ccn4Cc4cccc(F)c4)c3)cc2)CC1	2.16 µM	6.76 µM	5.23 µM	9.78	0.673 µM	1.4	2.33 µM	6.76	1.15 µM	5.02	1.34 µM	5.03	1.63 µM	6.59	0.707	3.77	0.828 µM	2.35	1.3 µM	4.92
N#CC1=C(N)Oc2c(ccc3cccnc23)C1c1ccccc1 (configuration not stated)	–	16.9 µM	1.73 µM	23.6	–	2.07	–	17.1	0.406 µM	58.1	4.88 µM	> 100	0.299 µM	12.7	–	> 30.7	–	> 100	–	36.2
CCN(CC)CCC(CNc1c(C)cnc2cc(Cl)ccc12)c1ccc(Cl)c(Cl)c1 (configuration not stated)	9.4 µM	24.8 µM	8.2 µM	21.3	2.13 µM	5.12	4.34 µM	17.7	1.79 µM	4.15	2.43 µM	7.06	3.78 µM	16	2.86	11.4	2.14 µM	7	2.27 µM	5.43
O=C(O)c1ccccc1C(=O)Nc1cc2c(cc1Br)-c1ccccc1C2=O	–	> 100 µM	–	> 100	–	> 100	–	> 100	–	> 100	–	> 100	–	> 100	–	> 100	–	> 100	–	> 100
